Patent US5654296A, “Condensed heterocyclic compounds, their production and use” (priority 1994, dated 1997)
Where a name gives a salt, the structure may show the parent alone.

What was measured:
serotonine (5-HT) uptake = assay: Activity to inhibit serotonine (5-HT) uptake; assay type: biochemical; conditions: rat whole brain; 3H-5-HT 10 nM; 37° C.; pH 7.4; read-out: 5-HT uptake inhibitory activity (IC50 μM)
Description: (a) Activity to inhibit serotonine (5-HT) uptake
The experiment was performed in accordance with the method of Hyttel et al. [Psychopharmacology 60, 13, 1978]. The whole brain of a rat was homogenized in 40 volumes of ice-cooled 0.32M sucrose solution containing 10 μM pargyline and, then, centrifuged (600×G) for 10 minutes. The supernatant was centrifuged (2500×G) for 55 minutes to provide a pellet. This pellet was suspended in Krebs-Ringer-phosphate buffer (pH 7.4; 122 mM NaCl, 4.82 mM KCl, 0.972 mM CaCl2, 1.21 mM MgSO4, 12.7 mM Na2 HPO4, 2.97 mM NaH2 PO4, 0.162 mM EDTA sodium, 10 mM glucose, 1.14 mM ascorbic acid) saturated with a mixed gas (95% O and 5% CO2). To 900 μl of this suspention was added a solution of the test drug (10 μl) in DMSO and the mixture was incubated at 37° C. for 5 minutes. Then, 100 μl of ^3 H-5-HT (final concentration 10 nM) was added and the mixture was further incubated at 37° C. for 5 minutes. This reaction mixture was filtered under suction using a GF/B filter and the filter was washed with 4 ml of the above-mentioned buffer. The radioactivity on the filter was measured by the liquid scintillation method.
The amount of the drug which caused a 50% decrease in 5-HT uptake is shown as 50% inhibitory activity (IC50) in Table 42.

[1] = test system: 45Ca2+ uptake (veratrine-stimulated, rat cerebral cortex crude synaptosome fraction); assay: 45Ca2+ uptake inhibition experiment; assay type: biochemical; conditions: 30 μM veratrine, 37° C., 10 minutes, read-out: 45Ca2+ uptake inhibitory activity (IC50 μM)
Description: The rat cerebral cortex was homogenized in 10 volumes of ice-cooled 0.32M sucrose solution to prepare a crude synaptosome fraction (100×G, 10 min., 12000×G, 20 min.). […] To 900 μl of the homogenate was added a DMSO solution of the test drug (10 μl). The mixture was incubated at 37° C. for 10 minutes, followed by addition of 100 μl of a veratrine solution (containing 0.18 uci ^45 Ca^2+) at a final veratrine concentration of 30 μM. The mixture was incubated at 37° C. for 10 minutes, quenched with 4 ml of ice-cooled EGTA solution (120 mM sodium chloride, 5 mM potassium chloride, 5 mM EGTA, pH=7.5) and suction-filtered using a GF/B filter. The filter was washed twice with 4 ml each of a washing solution (132 mM sodium chloride, 5 mM potassium chloride, 1.3 mM magnesium chloride, 1.2 mM calcium, chloride, 20 mM Tris base, pH 7.5) and the radioactivity of […] was measured by the liquid scintillation method.
The ^45 Ca^2+ uptake inhibition rate was calculated by means of the following equation. [formula] A: The ^45 Ca^2+ uptake after 10 minutes' stimulation with 30 μM veratrine in the presence of the test drug
B: The ^45 Ca^2+ uptake in the absence of veratrine and in the presence of the test drug
C: The ^45 Ca^2+ uptake after 10 minutes' stimulation with 30 μM veratrine in the absence of the test drug
D: The ^45 Ca^2+ uptake in the absence of the test drug and in the absence of veratrine

[2] = biological target: T1, GnRH receptors (rat pituitary anterior lobe membrane fraction) (Rattus norvegicus, UniProt P30969); assay: 125I-leuprolerin GnRH receptor binding inhibition test, rat pituitary anterior lobe membrane fraction; conditions: 4° C., 90 minutes, read-out: Binding inhibitory activity (IC50 μM) Rat
T1 construct: the anterior lobe of the pituitary gland was isolated and washed with ice-cooled homogenate buffer; from tissue; host or cells: anterior lobe of the pituitary gland, male Wistar rats (8 weeks old), membrane fraction
T1 sequence (P30969 1-327): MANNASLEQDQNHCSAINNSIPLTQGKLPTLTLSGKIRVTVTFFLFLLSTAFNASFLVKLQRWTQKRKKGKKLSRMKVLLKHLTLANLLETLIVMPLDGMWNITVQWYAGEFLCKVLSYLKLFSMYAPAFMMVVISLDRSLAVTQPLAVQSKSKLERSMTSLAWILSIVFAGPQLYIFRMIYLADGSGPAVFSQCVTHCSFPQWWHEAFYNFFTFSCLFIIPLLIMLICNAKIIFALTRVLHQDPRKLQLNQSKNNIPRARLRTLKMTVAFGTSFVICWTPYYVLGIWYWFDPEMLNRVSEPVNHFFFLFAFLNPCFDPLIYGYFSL
Description: Ten (10) μl of 3×10^4 M aqueous leuprolerin solution and 10 μl of 0.01 mg/ml lactoperoxidase were taken in a tube and 10 μl of Na^125 I solution (37 MBq) was added. After stirring, 10 μl of 0.001% H2 O2 was added and the reaction was conducted at room temperature for 20 minutes. Then, 700 μl of 0.05% TFA solution was added to the tube to terminate the reaction and the reaction mixture was purified by reverse-phase HPLC. The HPLC conditions are shown below. ^125 I-leuprolerin was eluted after a retention time of 26-27 minutes. (B) Preparation of a Rat Pituitary Anterior Lobe Membrane Fraction Containing GnRH Receptors […] The pituitary tissue was floated in 2 ml of the homogenate buffer and homogenized using a Polytron homogenizer. The homogenate was centrifuged at 700×G for 15 minutes. The supernatant was taken in an ultracentrifuge tube and centrifuged at 100,000×G for 1 hour to provide a membrane fraction pellet. […] The membrane fraction recovered as a pellet was resuspended in 10 ml of assay buffer, divided into portions, preserved at -80° C. and thawed when needed. […] For the rat and human membrane fractions prepared in (B) and (D), each membrane fraction was diluted with assay buffer to a concentration of 200 μg/ml and distributed in 188 μl portions into tubes. As to the bovine membrane fraction prepared in (C), the membrane fraction was diluted with assay buffer to 750 μg/ml and distributed in 188 μl portions into tubes. […] Where the rat or bovine pituitary anterior lobe membrane fraction was used, the reaction was conducted at 4° C. for 90 minutes. Where the membrane fraction of the CHO with human GnRH receptors expressed was used, the reaction was carried out at 25° C. for 60 minutes. […] After filtration, the radioactivity of ^125 I-leuprolerin remaining on the filter was measured with a γ-counter. The expression (TB-SB)/(TB-NSB)×100 (where SB=radioactivity with the compound added, TB=maximum bound radioactivity, NSB=nonspecifically bound radioactivity) was calculated to find the binding inhibition rate of each test compound.

[3] = biological target: T2, GnRH receptors (bovine pituitary anterior lobe membrane fraction) (Bos taurus, UniProt P32236); assay: 125I-leuprolerin GnRH receptor binding inhibition test, bovine pituitary anterior lobe membrane fraction; conditions: 4° C., 90 minutes, read-out: Binding inhibitory activity (IC50 μM) Bovine
T2 construct: A bovine pituitary anterior lobe membrane fraction containing GnRH receptors was prepared; from tissue; host or cells: bovine pituitary anterior lobe, membrane fraction
T2 sequence (P32236 1-328): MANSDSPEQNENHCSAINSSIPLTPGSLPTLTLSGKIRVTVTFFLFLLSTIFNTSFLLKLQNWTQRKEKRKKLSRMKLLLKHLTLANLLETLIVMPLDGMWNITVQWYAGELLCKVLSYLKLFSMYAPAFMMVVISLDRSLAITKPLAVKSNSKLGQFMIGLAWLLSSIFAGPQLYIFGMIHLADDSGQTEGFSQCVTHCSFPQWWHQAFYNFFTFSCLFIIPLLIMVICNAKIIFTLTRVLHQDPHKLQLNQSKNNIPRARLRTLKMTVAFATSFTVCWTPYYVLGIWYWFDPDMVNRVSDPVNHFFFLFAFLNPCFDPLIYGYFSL
Description: Ten (10) μl of 3×10^4 M aqueous leuprolerin solution and 10 μl of 0.01 mg/ml lactoperoxidase were taken in a tube and 10 μl of Na^125 I solution (37 MBq) was added. After stirring, 10 μl of 0.001% H2 O2 was added and the reaction was conducted at room temperature for 20 minutes. Then, 700 μl of 0.05% TFA solution was added to the tube to terminate the reaction and the reaction mixture was purified by reverse-phase HPLC. The HPLC conditions are shown below. ^125 I-leuprolerin was eluted after a retention time of 26-27 minutes. (C) Preparation of a Bovine Pituitary Anterior Lobe Membrane Fraction Containing GnRH Receptors A bovine pituitary anterior lobe membrane fraction containing GnRH receptors was prepared by the same procedure as described under (B). However, a 10,000×G centrifugation supernatant was recentrifuged at 100,000×G for 1 hour to provide the membrane fraction pellet. […] For the rat and human membrane fractions prepared in (B) and (D), each membrane fraction was diluted with assay buffer to a concentration of 200 μg/ml and distributed in 188 μl portions into tubes. As to the bovine membrane fraction prepared in (C), the membrane fraction was diluted with assay buffer to 750 μg/ml and distributed in 188 μl portions into tubes. […] Where the rat or bovine pituitary anterior lobe membrane fraction was used, the reaction was conducted at 4° C. for 90 minutes. Where the membrane fraction of the CHO with human GnRH receptors expressed was used, the reaction was carried out at 25° C. for 60 minutes. […] After filtration, the radioactivity of ^125 I-leuprolerin remaining on the filter was measured with a γ-counter. The expression (TB-SB)/(TB-NSB)×100 (where SB=radioactivity with the compound added, TB=maximum bound radioactivity, NSB=nonspecifically bound radioactivity) was calculated to find the binding inhibition rate of each test compound.

SMILES | IC50 (serotonine (5-HT) uptake) | IC50 [1] | IC50 [2] | IC50 [3]
Clc1ccc(C2(CCCN3CCN(c4ccccc4)CC3)CN=Cc3ccccc32)cc1 (centres unmarked) [II-13, 4-(p-Chlorophenyl)-3,4-dihydro-4-[3-(4-phenylpiperazino)propyl]isoquinolinetrihydrochloride] | 0.14 µM | 1.29 µM | – | –
O=C1c2ccsc2CCC12CCCCN2CCCC1(c2ccccc2)COCc2ccccc21 (centres unmarked) [Example I-47, 6,7-Dihydro-1'-[3-(4-phenylisochroman-4-yl)propyl]spiro[4-oxobenzo(b)thiophene-5(4H),2'-piperidine] hydrochloride] | – | – | 0.3 µM | 7 µM
Clc1ccccc1CNCCCC1(c2ccccc2)COCc2ccccc21 (centres unmarked) [Example I-20, 4-[3-(o-Chlorobenzylamino)propyl]-4-phenylisochroman hydrochloride] | – | 0.94 µM | – | –
c1ccc(C2(CCCNCc3ccccn3)COCc3ccccc32)cc1 (centres unmarked) [Example I-23, 4-[3-(2-Picolylamino)propyl]-4-phenylisochroman dihydrochloride] | – | 0.5 µM | – | –
C1=NCC(CCCN2CCN(c3ccccc3)CC2)(c2ccccc2)c2ccccc21 (centres unmarked) [II-8, 4-Phenyl-4-[3-(4-phenylpiperazin-1-yl)propyl]isoquinoline] | 0.41 µM | 1.84 µM | – | –
c1ccc(N2CCN(CCC3(c4ccccc4)COCc4ccccc43)CC2)cc1 (centres unmarked) [Example I-6, 4-[2-(4-Phenylpiperazin-1-yl)ethyl]-4-phenylisochroman dihydrochloride] | 1 µM | 0.32 µM | – | –
CN1Cc2ccccc2C(CCCN2CCN(c3ccccc3)CC2)(c2ccccc2)C1 (centres unmarked) [IV-7, 1,2,3,4-Tetrahydro-2-methyl-4-phenyl-4-[3-(4-phenylpiperazin-1-yl)propyl]isoquinoline trihydrochloride] | 0.18 µM | 1.71 µM | – | –
c1ccc(N2CCN(CCCC3(c4ccccc4)CNCc4ccccc43)CC2)cc1 (centres unmarked) [III-8, 1,2,3,4-Tetrahydro-4-phenyl-4-[3-(4-phenylpiperazin-1-yl)propyl]isoquinoline trihydrochloride] | 0.16 µM | 1.63 µM | – | –
c1ccc(CNCCCC2(c3ccccc3)COCc3ccccc32)cc1 (centres unmarked) [Example I-18, 4-[3-(Benzylamino)propyl]-4-phenylisochroman hydrochloride] | 0.8 µM | 1.32 µM | – | –
Fc1ccc(N2CCN(CCCC3(c4ccccc4)CNCc4ccccc43)CC2)cc1 (centres unmarked) [III-9, 4-{3-[4-(p-fluorophenyl)piperazin-1-yl]propyl}-1,2,3,4-tetrahydro-4-phenylisoquinoline dihydrochloride] | 0.17 µM | 1.44 µM | – | –
CN1Cc2ccccc2C(CCCN2CCC(c3ccccc3)CC2)(c2ccc(Cl)cc2)C1 (centres unmarked) [IV-13, 4-(p-Chlorophenyl)-2-methyl-4-[3-(4-phenylpiperidino)propyl]-1,2,3,4-tetrahydroisoquinoline trihydrochloride] | 0.13 µM | 0.32 µM | – | –
c1ccc(C2(CCCN3CCCCCC3)COCc3ccccc32)cc1 (centres unmarked) [Example I-15, 4-[3-(1-Hexamethyleneimino)propyl]-4-phenylisochroman hydrochloride] | – | 1.25 µM | – | –
CN(CCCC1(c2ccccc2)CNCc2ccccc21)Cc1ccccc1 (centres unmarked) [III-7, 4-[3-(N-Benzyl-N-methyl)aminopropyl]-1,2,3,4-tetrahydro-4-phenylisoquinoline dihydrochloride] | 0.2 µM | 1.77 µM | – | –
CN(CCCC1(c2ccccc2)CN=Cc2ccccc21)Cc1ccccc1 (centres unmarked) [II-7, 4-[3-(N-Benzyl-N-methyl)aminopropyl]-3,4-dihydro-4-phenylisoquinoline dihydrochloride] | 0.88 µM | 0.46 µM | – | –
Fc1ccccc1CNCCCC1(c2ccccc2)COCc2ccccc21 (centres unmarked) [Example I-19, 4-[3-(o-Fluorobenzylamino)propyl]-4-phenylisochroman hydrochloride] | – | 1.05 µM | – | –
